Assay results from a melting point compilation (Tetko et al.).

In the case of `COc1ccc(NC(=O)c2ccc(C(=O)O)s2)cc1`, the melting point is reported as 247 to 249 °C.
In the case of `Nc1c(C(=O)O)cc([N+](=O)[O-])cc1[N+](=O)[O-]`, the melting point is reported as 266 to 268 °C.
With `Cc1ccc2[nH]cc(C=O)c2c1` the melting point was 142 to 144 °C.
With `OCc1ccn(-c2ccccc2)n1` the melting point was 49 to 51 °C.
`O=C(O)c1cc2ccccc2cc1I` showed a melting point of 215 to 217 °C.
With `NC(=NO)c1cnccn1` the melting point was 182 to 184 °C.
Compound `Nc1cc(NC(=O)c2ccccc2I)ccc1Cl` has a melting point of 189 to 191 °C.
In the case of `O=C1Cc2cc(S(=O)(=O)Cl)c(Cl)cc2N1`, the melting point is reported as 185 to 187 °C.
With `CC(Cl)C(=O)N1CCN(C(=O)OC(C)(C)C)CC1` (stereo unspecified) the melting point was 115 to 117 °C.
For `CCCOc1ccc(CCC(=O)O)cc1`, the melting point was 90 to 92 °C.
For `NCCC(=O)Nc1ccc(C(N)=O)c(Cl)c1`, the melting point was 264 to 266 °C.
In the case of `CCOC(=O)c1nc(-c2ccc(Cl)c(Cl)c2)oc1C`, the melting point is reported as 99 to 101 °C.
In the case of `Nc1ccc(OCc2ccncc2)cc1`, the melting point is reported as 129 to 131 °C.
`N#CCC(=O)NCc1ccco1` showed a melting point of 93 to 95 °C.
`O=C(O)c1nccn2c(Br)cnc12` gave a melting point of 158 to 160 °C.
Compound `O=C(c1cc(Cl)ccn1)N1CCCCC1` has a melting point of 60 to 62 °C.
Compound `Cc1ncc(Cl)c(C(=O)O)n1` has a melting point of 130 to 132 °C.
`CC(C)(C)OC(=O)N1CCCCC1(C)C(=O)O` (stereo unspecified) gave a melting point of 92 to 94 °C.
Compound `Cc1ccc(N2CC(C(=O)O)CCC2=O)cc1C` (stereo unspecified) has a melting point of 184 to 186 °C.
Compound `O=C(O)c1c[nH]c2ccc(F)cc12` has a melting point of 225 to 227 °C.
Compound `O=C(O)c1cc(S(=O)(=O)Cl)c(Br)cc1Br` has a melting point of 185 to 187 °C.
For `O=C1CCCc2cc(S(=O)(=O)Cl)ccc2N1`, the melting point was 208 to 210 °C.
Compound `N#Cc1ccccc1NC(=O)CCCC(=O)O` has a melting point of 139 to 141 °C.
`O=C1CCC(c2ccc(F)cc2)=NN1` gave a melting point of 193 to 195 °C.
With `O=C1CCc2c(O)cccc21` the melting point was 242 to 244 °C.
Compound `CCOC(=O)c1cnc2ccc(C)cc2c1Cl` has a melting point of 62 to 64 °C.
Work on `OCCn1nc(-c2ccccc2)cc1-c1ccccc1` yielded a melting point of 96 to 98 °C.
Compound `COc1cc(CCC(=O)O)ccc1OCC(F)(F)F` has a melting point of 103 to 105 °C.
Work on `O=C(CCl)NC(=O)NC1CC1` yielded a melting point of 105 to 107 °C.
With `Cc1[nH]c2ccccc2c1C(=O)C(=O)O` the melting point was 199 to 201 °C.
`Cc1ccc(C2(C)NC(=O)NC2=O)c(C)c1` (stereo unspecified) showed a melting point of 144 to 146 °C.
For `C/C(=N\O)c1cccc(NC(=O)c2ccc(F)cc2)c1`, the melting point was 196 to 198 °C.
`CCc1c(C(C)O)oc2ccccc12` (stereo unspecified) showed a melting point of 66 to 68 °C.
Compound `Cc1ccc(OCCCC(=O)Nc2ccc(C#N)cc2)cc1` has a melting point of 126 to 128 °C.
`O=C(O)c1cc(=O)c(OCc2ccccc2)co1` gave a melting point of 179 to 181 °C.
In the case of `Cc1nccn1Cc1ccc(N)cc1`, the melting point is reported as 159 to 161 °C.
For `O=C(O)c1cnn(-c2ccc(C(F)(F)F)cn2)c1C(F)(F)F`, the melting point was 162 to 164 °C.
`ON=Cc1nc2cc(Cl)ccc2o1` showed a melting point of 206 to 208 °C.
`O=C(O)C1CCCN(C(=O)c2ccc3[nH]ncc3c2)C1` (stereo unspecified) gave a melting point of 239 to 241 °C.
Work on `O=C(Nc1ccc(Cl)cc1)OCC(F)(F)F` yielded a melting point of 69 to 71 °C.
For `O=[N+]([O-])c1ccc(OCc2ccccc2)cc1`, the melting point was 92 to 94 °C.
`FC(F)(F)CNc1ccccn1` showed a melting point of 70 to 72 °C.
Compound `O=C(O)c1c[nH]c2cc(F)ccc12` has a melting point of 228 to 230 °C.
Compound `CC1Oc2c(C(=O)O)cccc2C1C` (stereo unspecified) has a melting point of 96 to 100 °C.
`CC(C)N(C)S(=O)(=O)c1cccc(C(=O)O)c1` showed a melting point of 168 to 170 °C.
With `O=C(O)c1nn(-c2cccc(Cl)c2)cc1O` the melting point was 235 to 237 °C.
Work on `CCOc1nc(Cl)ncc1Br` yielded a melting point of 72 to 74 °C.
With `O=S1(=O)CCC(c2nnc(S)o2)C1` (stereo unspecified) the melting point was 181 to 183 °C.
Work on `CS(=O)(=O)N1CCCC(CCl)C1` (stereo unspecified) yielded a melting point of 64 to 66 °C.
Compound `NC(CN1CCCCCC1)=NO` has a melting point of 124 to 126 °C.
With `NC(=O)CC(N)=S` the melting point was 97 to 110 °C.
For `Cn1cccc1C(=O)NN`, the melting point was 113 to 115 °C.
`COC(=O)C(C)NC(=O)Cc1ccc(Cl)cc1` (stereo unspecified) showed a melting point of 82 to 84 °C.
`Cc1n[nH]c(-c2ccccc2I)n1` gave a melting point of 154 to 156 °C.
In the case of `COC(=O)c1ccc(-c2noc(CC(C)(C)C)n2)cc1`, the melting point is reported as 114 to 116 °C.
For `C=CC(=O)ON=C(N)c1cccc(Cl)c1`, the melting point was 114 to 116 °C.
Compound `COC(=O)c1csc(S(=O)(=O)Cl)c1` has a melting point of 54 to 56 °C.
Work on `Cc1cccc(-c2nonc2N)c1` yielded a melting point of 77 to 79 °C.
In the case of `COc1ccc(C(=O)Nc2cc(F)ccc2C(=O)O)cc1`, the melting point is reported as 225 to 227 °C.
For `COc1ccccc1NC(=O)c1ccc(NC(=O)CCl)cc1`, the melting point was 103 to 106 °C.
With `Cn1cnc2cc(C(=O)O)cnc21` the melting point was 284 to 286 °C.
With `COc1cccc(C(C[N+](=O)[O-])c2c[nH]c3ccccc23)c1` (stereo unspecified) the melting point was 93 to 95 °C.
In the case of `CCS(=O)(=O)Nc1ccc(N)cc1`, the melting point is reported as 88 to 90 °C.
Work on `Cc1ccc(Br)c(C(=O)O)c1` yielded a melting point of 139 to 141 °C.
For `O=[N+]([O-])c1cnc(Br)c(Br)c1`, the melting point was 76 to 78 °C.
With `N#Cc1ccnc(-n2ccnc2)c1` the melting point was 148 to 150 °C.
Compound `NC(=O)Nc1ccc(CC(=O)O)cc1` has a melting point of 179 to 182 °C.
For `CC(C)COC(=O)N1CCC(C(=O)O)CC1`, the melting point was 69 to 71 °C.
Compound `Cc1ccc2oc(S)nc2n1` has a melting point of 139 to 141 °C.
In the case of `O=C(O)CCS(=O)(=O)c1ccc2c(c1)OCCCO2`, the melting point is reported as 109 to 111 °C.
`O=S(=O)(F)CC1CCOCC1` showed a melting point of 53 to 55 °C.
